Assay results reported in ChEMBL document CHEMBL1275495, “Clinical isolates of Aspergillus species remain fully susceptible to voriconazole in the post-voriconazole era” (2008).
Values after ≈ are worked out from the molar mass of the structure shown.

Tests used:
Format in all cases: functional
Aspergillus niger = experiment: Antifungal activity against Aspergillus niger clinical isolate obtained from invasive aspergillosis patient after 48 hrs by CLSI method
Aspergillus flavus = experiment: Antifungal activity against Aspergillus flavus clinical isolate obtained from invasive aspergillosis patient after 48 hrs by CLSI method
Aspergillus sp. [1] = experiment: Antifungal activity against Aspergillus sp. clinical isolate obtained from invasive aspergillosis patient after 48 hrs by CLSI method
Aspergillus sp. [2] = experiment: Antifungal activity against Aspergillus sp. selected after drug exposure after 48 hrs by CLSI method
Aspergillus terreus = experiment: Antifungal activity against Aspergillus terreus clinical isolate obtained from invasive aspergillosis patient after 48 hrs by CLSI method
Aspergillus fumigatus = experiment: Antifungal activity against Aspergillus fumigatus clinical isolate obtained from invasive aspergillosis patient after 48 hrs by CLSI method
Aspergillus = experiment: Antifungal activity against Aspergillus species after 48 hrs by CLSI method
Aspergillus sp. [3] = experiment: Antifungal activity against Aspergillus sp. clinical isolate obtained from invasive aspergillosis patient selected after drug exposure after 48 hrs by CLSI method

**Q.** For `C[C@@H](c1ncncc1F)[C@](O)(Cn1cncn1)c1ccc(F)cc1F` [VORICONAZOLE], which Activity (Aspergillus niger) is on record?
**A.** 0.76 µg/mL

**Q.** What about the Activity (Aspergillus flavus) of the same molecule?
**A.** 0.76 µg/mL

**Q.** And the MIC (Aspergillus sp. [1])?
**A.** 0.57 µg/mL (≈ 1.63 µM)

**Q.** And the MIC50 (Aspergillus sp. [1])?
**A.** 0.5 µg/mL (≈ 1.43 µM)

**Q.** What about the MIC90 (Aspergillus sp. [1]) of the same molecule?
**A.** 1 µg/mL (≈ 2.86 µM)

**Q.** What about the MIC (Aspergillus sp. [2]) of the same molecule?
**A.** 0.4 µg/mL (≈ 1.15 µM)

**Q.** And the MIC50 (Aspergillus sp. [2])?
**A.** 0.25 µg/mL (≈ 0.716 µM)

**Q.** What about the MIC90 (Aspergillus sp. [2]) of the same molecule?
**A.** 0.5 µg/mL (≈ 1.43 µM)

**Q.** And the Activity (Aspergillus terreus)?
**A.** 0.76 µg/mL

**Q.** What about the Activity (Aspergillus fumigatus) of the same molecule?
**A.** 0.46 µg/mL

**Q.** What about the MIC (Aspergillus) of the same molecule?
**A.** 0.39 µg/mL (≈ 1.12 µM)

**Q.** What about the MIC50 (Aspergillus) of the same molecule?
**A.** 0.25 µg/mL (≈ 0.716 µM)

**Q.** And the MIC90 (Aspergillus)?
**A.** 0.5 µg/mL (≈ 1.43 µM)

**Q.** And the MIC (Aspergillus sp. [3])?
**A.** 0.61 µg/mL (≈ 1.75 µM)

**Q.** What about the MIC50 (Aspergillus sp. [3]) of the same molecule?
**A.** 0.5 µg/mL (≈ 1.43 µM)

**Q.** And the MIC90 (Aspergillus sp. [3])?
**A.** 1 µg/mL (≈ 2.86 µM)
